Results: patent US7112585B2, “Pyrimidine derivatives as corticotropin releasing factor inhibitors” (Bristol-Myers Squibb Company, priority 2003, dated 2006)

Tests used:
[1] = biological target: T1, cloned human CRF-R1 receptors (Homo sapiens, UniProt P34998); assay: CRF-R1 Receptor Binding Assay (inhibition of 125I-ovine-CRF binding to cell membranes); design: key to activity: a: Ki≦100 nM; b: 100 nM<Ki≦500 nM; c: 500 nM<Ki≦5,000 nM; activity reported in percent inhibition at 10 μM; details: CRF assays; class d = activity only as percent inhibition at 10 μM (value not given)
T1 construct: the coding region was amplifies by PCR from start to stop codons; expressed in transfected cells; host or cells: 293EBNA (HEK 293 EBNA-1) cells, episomal vector phchCRFR, hygromycin-selected pool; membranes
T1 sequence (P34998 24-415): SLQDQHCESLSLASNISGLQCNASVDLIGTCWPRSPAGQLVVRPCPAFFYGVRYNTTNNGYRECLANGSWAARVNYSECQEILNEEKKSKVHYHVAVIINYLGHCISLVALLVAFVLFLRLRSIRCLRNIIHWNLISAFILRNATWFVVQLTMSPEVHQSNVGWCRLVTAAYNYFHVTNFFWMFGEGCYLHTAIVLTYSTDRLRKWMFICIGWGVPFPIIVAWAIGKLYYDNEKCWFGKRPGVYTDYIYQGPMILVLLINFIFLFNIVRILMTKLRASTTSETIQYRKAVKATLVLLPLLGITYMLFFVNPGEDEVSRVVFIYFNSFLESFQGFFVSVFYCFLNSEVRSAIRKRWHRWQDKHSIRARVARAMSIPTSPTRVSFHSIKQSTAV
Text: CRF-R1 Receptor Binding Assay for the Evaluation of Biological Activity
The following is a description of the isolation of cell membranes containing cloned human CRF-R1 receptors for use in a standard binding assay as well as a description of the assay itself.
Messenger RNA was isolated from human hippocampus. The mRNA was isolated from human hippocampus. The mRNA was reverse transcribed using oligo (dt) 12–18 and the coding region was amplifies by PCR from start to stop codons. The resulting PCR fragment was cloned into the EcORV site of pGEMV, from whence the insert was reclaimed using XhoI+XbaI and cloned into the XhoI+XbaI sites of vector pm3as (which contains a CMV promoter, the SV′t′ splice and early poly A signals, an Eptein-Barr viral origin of replication, and a hygromycin selectable marker). The resulting expression vector, called phchCRFR was transfected in 293EBNA cells and cells retaining the episome were selected in the presence of […] hygromycin. Cells surviving 4 weeks of selection in hygromycin were pooled, adapted to growth in suspension and used to generate membranes for the binding assay described below. Individual aliquots containing approximately 1×10^8 of the suspended cells were then centrifuged to form a pellet and frozen. For the binding assay a frozen pellet described above containing 293EBNA cells transfected with hCRFR1 receptors is homogenized in 10 mL of ice cold tissue buffer (50 mM HEPES buffer pH 7.0, containing 10 MM MgCl2, 2 mM EGTA, 1 μg/mL apotinin, 1 μg/mL leupeptin and 1 μg/mL pepstatin). The homoginate is centrifuged at 40,000×g for 12 min and the resulting pellet rehomogenized in 10 mL of tissue buffer. After another centrifugation at 40,000×g for 12 min, the pellet is resuspended to a protein concentration of 360 μg/mL to be used in the assay.
Binding assays are performed in 96 well plates; each well having a 300 μL capacity. To each well is added 50 μL of test drug dilutions (final concentration of drugs range from 10^−10–10^−5 M), 100 μL of ^125I-ovine-CRF (^125I-o-CRF) (final concentration 150 pM) and 150 μL of the cell homoginate described above. Plates are then allowed to incubate at room temperature for 2 hours before filtering the incubate over GF/F filters (presoaked with 0.3% polyethyleneimine) using an appropriate cell harvester. Filters are rinsed 2 times with ice cold assay buffer before removing individual filters and assessing them for radioactivity on a gamma counter.
Curves of the inhibition of ^125I-o-CRF binding to cell membranes at various dilutions of test drug are analyzed by the iterative curve fitting program LIGAND [P. J. Munson and D. Rodbard, Anal. Biochem., 107:220 (1980), which provides Ki values for inhibition which are then used to assess biological activity. […]
Messenger RNA was isolated from human hippocampus. The mRNA was isolated from human hippocampus. The mRNA was reverse transcribed using oligo (dt) 12–18 and the coding region was amplifies by PCR from start to stop codons. The resulting PCR fragment was cloned into the EcORV site of pGEMV, from whence the insert was reclaimed using XhoI+XbaI and cloned into the XhoI+XbaI sites of vector pm3as (which contains a CMV promoter, the SV′t′ splice and early poly A signals, an Eptein-Barr viral origin of replication, and a hygromycin selectable marker). The resulting expression vector, called phchCRFR was transfected in 293EBNA cells and cells retaining the episome were selected in the presence of […] hygromycin. Cells surviving 4 weeks of selection in hygromycin were pooled, adapted to growth in suspension and used to generate membranes for the binding assay described below. […]
A frozen pellet described above containing 293EBNA cells transfected with hCRFR1 receptors or the rat frontal cortex tissue dissected from frozen rat brains was prepared as the source of membranes expressing CRF1 receptors used in binding assays. […]

| SMILES | activity [1] | melting point | Ki [1] |
| --- | --- | --- | --- |
| Cc1cc(C)c(Nc2nc(C)ncc2S(=O)(=O)c2ccc(-c3ncccn3)cc2)c(C)c1 [Example 25, [2-Methyl-5-(4-pyrimidin-2-yl-benzenesulfonyl)-pyrimidin-4-yl]-(2,4,6-trimethylphenyl)-amine] |  | 215 to 217 °C | ≤ 100 nM |
| Cc1cc(C)c(Nc2nc(C)ncc2S(=O)(=O)c2ccc(-c3ccncc3)cc2)c(C)c1 [Example 26, [2-Methyl-5-(4-pyridin-4-yl-benzenesulfonyl)-pyrimidin-4-yl]-(2,4,6-trimethylphenyl)-amine] |  | 232 to 234 °C | 500 to 5000 nM |
| Cc1cc(C)c(Nc2nc(C)ncc2S(=O)(=O)c2ccc(-c3ccccn3)cc2)c(C)c1 [Example 27, [2-Methyl-5-(4-pyridin-2-yl-benzenesulfonyl)-pyrimidin-4-yl]-(2,4,6-trimethylphenyl)-amine] |  | 201 to 203 °C | ≤ 100 nM |
| Cc1cc(C)c(Nc2nc(C)ncc2S(=O)(=O)c2ccc(-c3cccnc3)cc2)c(C)c1 [Example 28, [2-Methyl-5-(4-pyridin-3-yl-benzenesulfonyl)-pyrimidin-4-yl]-(2,4,6-trimethylphenyl)-amine] |  | 190 to 192 °C | 500 to 5000 nM |

Results, then the compound that gave them:

| activity [1] | melting point | Ki [1] | SMILES |
| --- | --- | --- | --- |
| d | 210 to 212 °C |  | Cc1cc(C)c(Nc2nc(C)ncc2S(=O)(=O)c2ccc(-c3cncnc3)cc2)c(C)c1 [Example 24, [2-Methyl-5-(4-pyrimidin-5-yl-benzenesulfonyl)-pyrimidin-4-yl]-(2,4,6-trimethylphenyl)-amine] |
| d | 240 to 242 °C |  | Cc1cc(C)c(Nc2nc(C)ncc2S(=O)(=O)c2ccc(C3=NCCN3)cc2)c(C)c1 [Example 29, {5-[4-(4,5-Dihydro-1H-imidazol-2-yl)-benzenesulfonyl]-2-methyl-pyrimidin-4-yl}-(2,4,6-trimethylphenyl)-amine] |
| d | 282 to 284 °C |  | Cc1cc(C)c(Nc2nc(C)ncc2S(=O)(=O)c2ccc(-c3ncc[nH]3)cc2)c(C)c1 [Example 30, {5-[4-(1H-Imidazol-2-yl)-benzenesulfonyl]-2-methyl-pyrimidin-4-yl}-(2,4,6-trimethylphenyl)-amine] |
